The target in one data set is MERS-CoV RdRp (Middle East respiratory syndrome-related coronavirus, UniProt K9N7C7). The experiment in a line: cell-based. As to conditions: for inhibition at 100 µM: read-out: inhibition / reduction of MERS-CoV RdRp activity.
For a further data set, the system named is HEK293T cells. The experiment in a line: cytotoxicity / cell viability (CellTiter 96 AQueous One Solution).
Where [1] appears, read: HEK-293T, read-out: MERS-CoV RdRp activity (%).

Entries after “also recorded” stand apart in the source; their conditions may differ.

As a reminder, the IC50 is the concentration at which inhibition is half-maximal. High values mean weaker potency, low ones greater potency.

Chain of MERS-CoV RdRp (K9N7C7 4378-5310 limits assumed): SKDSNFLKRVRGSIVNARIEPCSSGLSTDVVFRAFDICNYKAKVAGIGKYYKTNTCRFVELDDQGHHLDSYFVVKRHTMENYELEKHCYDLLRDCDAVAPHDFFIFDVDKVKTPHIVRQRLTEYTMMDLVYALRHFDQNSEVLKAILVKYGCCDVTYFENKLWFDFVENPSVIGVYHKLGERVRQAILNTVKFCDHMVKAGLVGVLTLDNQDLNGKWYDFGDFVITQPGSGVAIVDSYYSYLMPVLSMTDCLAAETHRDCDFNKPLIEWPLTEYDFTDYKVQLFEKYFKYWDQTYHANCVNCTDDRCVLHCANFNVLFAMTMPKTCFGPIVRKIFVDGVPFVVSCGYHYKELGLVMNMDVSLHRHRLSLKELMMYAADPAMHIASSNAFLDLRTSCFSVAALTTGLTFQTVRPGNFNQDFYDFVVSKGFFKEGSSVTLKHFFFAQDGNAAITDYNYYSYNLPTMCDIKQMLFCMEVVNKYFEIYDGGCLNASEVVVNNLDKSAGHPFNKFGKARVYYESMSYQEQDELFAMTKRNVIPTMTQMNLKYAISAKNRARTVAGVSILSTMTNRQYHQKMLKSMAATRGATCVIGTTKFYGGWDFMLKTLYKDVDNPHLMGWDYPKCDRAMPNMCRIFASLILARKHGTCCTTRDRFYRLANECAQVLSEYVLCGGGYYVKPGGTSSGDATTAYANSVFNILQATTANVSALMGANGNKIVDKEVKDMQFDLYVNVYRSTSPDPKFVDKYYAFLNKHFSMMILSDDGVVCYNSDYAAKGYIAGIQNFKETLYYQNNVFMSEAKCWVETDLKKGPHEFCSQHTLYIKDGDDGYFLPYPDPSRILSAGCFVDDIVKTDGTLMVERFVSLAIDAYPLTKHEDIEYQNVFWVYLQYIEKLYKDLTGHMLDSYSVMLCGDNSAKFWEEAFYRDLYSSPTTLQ

For `COc1c(-c2ccc3cc(NS(C)(=O)=O)ccc3c2)cc(-n2ccc(=O)[nH]c2=O)cc1C(C)(C)C` [dasabuvir], on MERS-CoV RdRp, it took 11.6 µM to reach half-maximal inhibition (IC50); the “effect on MERS-CoV RdRp activity (in words)” value (“effect” below) is given as “significantly inhibited, but not completely inhibited”; the “reduction of MERS-CoV RdRp activity” value was “about 50%”. The activity at 10 µM at MERS-CoV RdRp (setting [1]) worked out at 51.5 ± 4.2%. In addition, in the data set with HEK293T cells (HEK293T cells, 10 μM, 18 hours), the cytotoxicity result is “no cytotoxicity was observed”. For the same molecule, the “concentration at which cytotoxicity was reduced by half” value with HEK293T cells (HEK293T cells, 18 hours) was 27.143 µM. For the same molecule, the cytotoxicity result in the data set on HEK293T cells (HEK293T cells, concentration exceeding 10 μM, 18 hours) was “cytotoxicity was observed”.
Consider `NC(=O)c1nc(F)c[nH]c1=O` [favipiravir], for which the “effect” value at MERS-CoV RdRp is on record as “no significant effect”. Also, at MERS-CoV RdRp (setting [1]), the activity at 100 µM is 85.8 ± 2.4%. In addition, the inhibition at 100 µM on MERS-CoV RdRp (HEK-293T) was about 10%.
For the molecule `Nc1ccn([C@@H]2CS[C@H](CO)O2)c(=O)n1` [lamivudine], on MERS-CoV RdRp (setting [1]), the activity at 100 µM was 98.3 ± 1.2%.
Consider `CCC(CC)COC(=O)[C@H](C)N[P@](=O)(OC[C@H]1O[C@@](C#N)(c2ccc3c(N)ncnn23)[C@H](O)[C@@H]1O)Oc1ccccc1` [remdesivir], for which the midpoint of inhibition against MERS-CoV RdRp, the IC50, lay at 5.028 ± 0.035 µM. The activity at 12 µM at MERS-CoV RdRp (setting [1]) was found to be 22.3 ± 0.3%. In addition, the cytotoxicity entry in the data set on HEK293T cells (HEK293T cells, 12 μM) is recorded as “no cytotoxicity was observed”.
With `NC(=O)c1ncn([C@@H]2O[C@H](CO)[C@@H](O)[C@H]2O)n1` [ribavirin], the “effect” value at MERS-CoV RdRp is “no significant effect”. At MERS-CoV RdRp (setting [1]), the activity at 100 µM was 60.3 ± 2.9%. Besides, on MERS-CoV RdRp (HEK-293T), the inhibition at 100 µM was about 40%.
The matching figures for `CC(C)OC(=O)[C@H](C)N[P@](=O)(OC[C@H]1O[C@@H](n2ccc(=O)[nH]c2=O)[C@](C)(F)[C@@H]1O)Oc1ccccc1` [sofosbuvir]: “no significant effect”, 62.4 ± 5.3% and about 40%.
Turning to `CC(C)[C@H](N)C(=O)OCCOCn1cnc2c(=O)[nH]c(N)nc21` [valacyclovir], the “effect” value at MERS-CoV RdRp is reported as “did not reduce; also recorded: no significant effect”. Further, on MERS-CoV RdRp (setting [1]), the activity at 100 µM amounted to 90.2 ± 3.2%.
Take `Nc1ncnc2c1ncn2[C@@H]1O[C@H](CO)[C@@H](O)[C@@H]1O` [vidarabine]: on MERS-CoV RdRp, the “FLuc activity (internal control)” value is “reduced in a concentration-dependent manner”, the NLuc activity result is “reduced in a concentration-dependent manner” and the “effect” value is “did not reduce; also recorded: did not affect the NLuc/FLuc ratio or MERS-CoV RdRp activity; also recorded: no significant effect”. Further, the activity at 100 µM at MERS-CoV RdRp (setting [1]) was 89.9 ± 2.9%. The cytotoxicity entry in the data set on HEK293T cells (concentration not stated (tested up to 100 μM)) is on record as “did not show cytotoxicity”.
On to `Cc1cn([C@H]2C[C@H](N=[N+]=[N-])[C@@H](CO)O2)c(=O)[nH]c1=O` [zidovudine], for which the “effect” value at MERS-CoV RdRp is recorded as “did not reduce; also recorded: no significant effect”. The activity at 100 µM on MERS-CoV RdRp (setting [1]) stood at 111 ± 3.7%.
